Source: US9150566B2, “2-(1,2,3-triazol-2-yl)benzamide and 3-(1,2,3-triazol-2-YL)picolinamide derivatives as orexin receptor antagonists” (ACTELION PHARMACEUTICALS LTD., priority 2011, dated 2015)

Assays:
[1] = target: human orexin-2 receptor (Homo sapiens (Human), UniProt O43614); assay: In vitro intracellular calcium measurements (FLIPR), antagonistic activity on orexin-2 receptor; format: cell-based; conditions: CHO cells expressing human orexin-2 receptor; FLIPR; 3 nM orexin-A agonist; 120 min antagonist incubation; geometric mean if determined several times; read-out: IC50 OX2
human orexin-2 receptor, sequence (O43614 whole entry): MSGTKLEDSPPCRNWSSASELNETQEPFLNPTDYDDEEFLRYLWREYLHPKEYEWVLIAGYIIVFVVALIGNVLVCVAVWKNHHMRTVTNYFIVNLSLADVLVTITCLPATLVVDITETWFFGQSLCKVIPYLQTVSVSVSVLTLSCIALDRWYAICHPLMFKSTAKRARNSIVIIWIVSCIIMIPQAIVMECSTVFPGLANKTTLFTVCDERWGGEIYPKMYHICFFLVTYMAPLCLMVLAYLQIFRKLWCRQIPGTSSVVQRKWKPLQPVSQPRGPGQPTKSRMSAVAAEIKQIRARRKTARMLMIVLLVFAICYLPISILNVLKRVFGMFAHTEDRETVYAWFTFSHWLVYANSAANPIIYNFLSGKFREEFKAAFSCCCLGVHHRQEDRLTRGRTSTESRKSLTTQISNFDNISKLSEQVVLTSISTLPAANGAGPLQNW
Method: (§1) In Vitro Assay: Intracellular Calcium Measurements:
(§2) Chinese hamster ovary (CHO) cells expressing the human orexin-1 receptor and the human orexin-2 receptor, respectively, are grown in culture medium (Ham F-12 with L-Glutamine) containing 300 μg/mL G418, 100 U/mL penicillin, 100 μg/mL streptomycin and 10% heat inactivated fetal calf serum (FCS). The cells are seeded at 20′000 cells/well into 384-well black clear bottom sterile plates (Greiner). The seeded plates are incubated overnight at 37° C. in 5% CO2.
(§3) Within the Fluorescent Imaging Plate Reader (FLIPR Tetra, Molecular Devices), antagonists are added to the plate in a volume of 10 μL/well, incubated for 120 min and finally 10 μL/well of agonist is added. Fluorescence is measured for each well at 1 second intervals, and the height of each fluorescence peak is compared to the height of the fluorescence peak induced by 3 nM orexin-A with vehicle in place of antagonist. […] Optimized conditions were achieved by adjustment of pipetting speed and cell splitting regime. The calculated IC50 values may fluctuate depending on the daily cellular assay performance. Fluctuations of this kind are known to those skilled in the art.

[2] = target: human orexin-1 receptor (Homo sapiens (Human), UniProt O43613); assay: In vitro intracellular calcium measurements (FLIPR), antagonistic activity on orexin-1 receptor; format: cell-based; conditions: CHO cells expressing human orexin-1 receptor; FLIPR; 3 nM orexin-A agonist; 120 min antagonist incubation; geometric mean if determined several times; read-out: IC50 OX1
human orexin-1 receptor, sequence (O43613 whole entry): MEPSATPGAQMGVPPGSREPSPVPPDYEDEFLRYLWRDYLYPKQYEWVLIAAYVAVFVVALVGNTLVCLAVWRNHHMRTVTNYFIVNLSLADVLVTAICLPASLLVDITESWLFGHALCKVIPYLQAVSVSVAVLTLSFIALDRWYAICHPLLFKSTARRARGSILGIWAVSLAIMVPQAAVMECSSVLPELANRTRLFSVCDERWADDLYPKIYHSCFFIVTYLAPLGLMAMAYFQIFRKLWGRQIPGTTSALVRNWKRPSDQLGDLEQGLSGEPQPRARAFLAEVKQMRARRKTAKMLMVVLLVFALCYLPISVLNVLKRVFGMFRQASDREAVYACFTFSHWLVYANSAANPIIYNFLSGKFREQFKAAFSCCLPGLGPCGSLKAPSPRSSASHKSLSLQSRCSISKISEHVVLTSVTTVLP
Method: as §1, §2, §3

[3] = target: CYP3A4 (Homo sapiens (Human), UniProt P08684); assay: CYP3A4 inhibition assay (human liver microsomes, testosterone 6β-hydroxylation); conditions: read-out: CYP3A4 IC50, 40 μM testosterone
CYP3A4, sequence (P08684 whole entry): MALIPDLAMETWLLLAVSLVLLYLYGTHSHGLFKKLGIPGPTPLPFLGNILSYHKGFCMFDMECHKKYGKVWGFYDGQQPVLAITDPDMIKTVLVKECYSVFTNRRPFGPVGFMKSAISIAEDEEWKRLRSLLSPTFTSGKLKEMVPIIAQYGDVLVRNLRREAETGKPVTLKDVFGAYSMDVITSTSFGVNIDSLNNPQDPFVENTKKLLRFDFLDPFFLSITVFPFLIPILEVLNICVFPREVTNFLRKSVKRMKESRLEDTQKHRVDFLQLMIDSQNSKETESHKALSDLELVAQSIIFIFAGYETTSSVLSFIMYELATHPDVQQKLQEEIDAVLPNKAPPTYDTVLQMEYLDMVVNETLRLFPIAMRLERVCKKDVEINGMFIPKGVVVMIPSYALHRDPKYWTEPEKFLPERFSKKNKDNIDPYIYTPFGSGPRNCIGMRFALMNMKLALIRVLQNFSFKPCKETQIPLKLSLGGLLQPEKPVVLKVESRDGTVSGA
Method: The CYP3A4 inhibition assay was performed using human liver microsomes and testosterone 6β-hydroxylation as a P450 isoform-specific marker. In a total volume of 150 μL, ^14C-testosterone at a final concentration of 40 μM in a 100 mM phosphate buffer (pH 7.4) was incubated in a 96-well plate with 0.3 mg/mL of human liver microsomes in an Eppendorf thermomixer at 37° C. and 400 rpm. […] The reaction was initiated by addition of 15 μL of the NADPH-regenerating system containing the glucose-6-phosphate dehydrogenase and terminated after 7 min with a 75 μL-aliquot of methanol. After centrifugation at 465 g and 4° C. for 20 min, a 50 μL-aliquot of the supernatant was submitted to HPLC according to the method described below. The total concentration of DMSO in the assay including controls without inhibitor was 1%.
Nicardipine was run in parallel as a reference inhibitor of CYP3A4 activity at final concentrations of 0, 0.1, 0.5, 1.0, 5.0, 10, 25, and 50 μM. Stock solutions thereof were prepared in DMSO.
The chromatographic separation of testosterone and 6β-hydroxytestosterone was achieved on a Phenomenex Luna C18(2) column (5 μm, 2.0×10 mm) at RT with a flow rate of 0.6 mL/min. Mobile phases consisted of 1% aqueous formic acid (phase A) and methanol (phase B) using a gradient method with 0.9 min total run time.
The quantification of 6β-hydroxytestosterone was carried out using a quadrupole mass spectrometer equipped with an ionspray interface operating in positive ion mode. The parameters of the mass detector were set as follows: capillary voltage 5 kV, auxiliary gas 40 psi, collision gas 3 mTorr, and transfer capillary temperature 420° C.

O=C(c1ccccc1-n1nccn1)N1CCOC[C@H]1Cc1cccc(-c2ncon2)c1 [Example 1, [(R)-3-(3-[1,2,4]Oxadiazol-3-yl-benzyl)-morpholin-4-yl]-(2-[1,2,3]triazol-2-yl-phenyl)-methanone]
IC50 [1]: 0.803 µM | IC50 [2]: 0.04 µM | IC50 [3]: > 50 µM

Cc1ccc(-n2nccn2)c(C(=O)N2CCOC[C@H]2Cc2cccc(-c3ncon3)c2)c1 [Example 2, (5-Methyl-2-[1,2,3]triazol-2-yl-phenyl)-[(R)-3-(3-[1,2,4]oxadiazol-3-yl-benzyl)-morpholin-4-yl]-methanone]
IC50 [1]: 0.406 µM | IC50 [2]: 0.007 µM | IC50 [3]: 43 µM

COc1ccc(C[C@@H]2COCCN2C(=O)c2ccccc2-n2nccn2)cc1-c1ccccn1 [Example 3, [(R)-3-(4-Methoxy-3-pyridin-2-yl-benzyl)-morpholin-4-yl]-(2-[1,2,3]triazol-2-yl-phenyl)-methanone]
IC50 [1]: 3.34 µM | IC50 [2]: 0.004 µM | IC50 [3]: 21 µM

COc1ccc(C[C@@H]2COCCN2C(=O)c2ccccc2-n2nccn2)cc1-c1cccnc1 [Example 4, [(R)-3-(4-Methoxy-3-pyridin-3-yl-benzyl)-morpholin-4-yl]-(2-[1,2,3]triazol-2-yl-phenyl)-methanone]
IC50 [1]: 1.88 µM | IC50 [2]: 0.006 µM | IC50 [3]: 1.2 µM

COc1ccc(C[C@@H]2COCCN2C(=O)c2ccccc2-n2nccn2)cc1-c1ncccn1 [Example 5, [(R)-3-(4-Methoxy-3-pyrimidin-2-yl-benzyl)-morpholin-4-yl]-(2-[1,2,3]triazol-2-yl-phenyl)-methanone]
IC50 [1]: 2.95 µM | IC50 [2]: 0.004 µM | IC50 [3]: > 50 µM

COc1ccc(C[C@@H]2COCCN2C(=O)c2ccccc2-n2nccn2)cc1-c1cnccn1 [Example 6]
IC50 [1]: 1.94 µM | IC50 [2]: 0.012 µM | IC50 [3]: 26 µM

COc1ccc(C[C@@H]2COCCN2C(=O)c2ccccc2-n2nccn2)cc1-c1cccnn1 [Example 7, [(R)-3-(4-Methoxy-3-pyridazin-3-yl-benzyl)-morpholin-4-yl]-(2-[1,2,3]triazol-2-yl-phenyl)-methanone]
IC50 [1]: 6.09 µM | IC50 [2]: 0.026 µM | IC50 [3]: > 50 µM

COc1ccc(C[C@@H]2COCCN2C(=O)c2ccccc2-n2nccn2)cc1-c1nccs1 [Example 8, [(R)-3-(4-Methoxy-3-thiazol-2-yl-benzyl)-morpholin-4-yl]-(2-[1,2,3]triazol-2-yl-phenyl)-methanone]
IC50 [1]: 0.335 µM | IC50 [2]: 0.001 µM | IC50 [3]: 3.2 µM

COc1ccc(C[C@@H]2COCCN2C(=O)c2ccccc2-n2nccn2)cc1-c1ncco1 [Example 9, [(R)-3-(4-Methoxy-3-oxazol-2-yl-benzyl)-morpholin-4-yl]-(2-[1,2,3]triazol-2-yl-phenyl)-methanone]
IC50 [1]: 0.468 µM | IC50 [2]: 0.002 µM | IC50 [3]: 8.4 µM

COc1ccc(C[C@@H]2COCCN2C(=O)c2ccccc2-n2nccn2)cc1-n1cccn1 [Example 14, [(R)-3-(4-Methoxy-3-pyrazol-1-yl-benzyl)-morpholin-4-yl]-(2-[1,2,3]triazol-2-yl-phenyl)-methanone]
IC50 [1]: 0.905 µM | IC50 [2]: 0.003 µM | IC50 [3]: > 50 µM

Cc1ccc(-n2nccn2)c(C(=O)N2CCOC[C@H]2Cc2cccc(-n3ccnn3)c2)c1 [Example 15, (5-Methyl-2-[1,2,3]triazol-2-yl-phenyl)-[(R)-3-(3-[1,2,3]triazol-1-yl-benzyl)-morpholin-4-yl]-methanone]
IC50 [1]: 3.16 µM | IC50 [2]: 0.024 µM | IC50 [3]: 14 µM

Cc1ccc(-n2nccn2)c(C(=O)N2CCOC[C@H]2Cc2cccc(-c3ncccn3)c2)c1 [Example 17, (5-Methyl-2-[1,2,3]triazol-2-yl-phenyl)-[(R)-3-(3-pyrimidin-2-yl-benzyl)-morpholin-4-yl]-methanone]
IC50 [1]: 0.396 µM | IC50 [2]: 0.002 µM | IC50 [3]: 33 µM

O=C(c1ccccc1-n1nccn1)N1CCOC[C@H]1Cc1cccc(-c2ncccn2)c1 [Example 18, [(R)-3-(3-Pyrimidin-2-yl-benzyl)-morpholin-4-yl]-(2-[1,2,3]triazol-2-yl-phenyl)-methanone]
IC50 [1]: 1.89 µM | IC50 [2]: 0.022 µM | IC50 [3]: 39 µM

Cc1ccc(-n2nccn2)c(C(=O)N2CCOC[C@H]2Cc2cccc(-n3cccn3)c2)c1 [Example 19, (5-Methyl-2-[1,2,3]triazol-2-yl-phenyl)-[(R)-3-(3-pyrazol-1-yl-benzyl)-morpholin-4-yl]-methanone]
IC50 [1]: 0.369 µM | IC50 [2]: 0.002 µM | IC50 [3]: 32 µM

O=C(c1cc(F)ccc1-n1nccn1)N1CCOC[C@H]1Cc1cccc(-n2cccn2)c1 [Example 20, (5-Fluoro-2-[1,2,3]triazol-2-yl-phenyl)-[(R)-3-(3-pyrazol-1-yl-benzyl)-morpholin-4-yl]-methanone]
IC50 [1]: 1.53 µM | IC50 [2]: 0.025 µM | IC50 [3]: 25 µM

Cc1cccc(C(=O)N2CCOC[C@H]2Cc2cccc(-c3ncon3)c2)c1-n1nccn1 [Example 83, (3-Methyl-2-[1,2,3]triazol-2-yl-phenyl)-[(R)-3-(3-[1,2,4]oxadiazol-3-yl-benzyl)-morpholin-4-yl]-methanone]
IC50 [2]: 0.007 µM | IC50 [3]: 25 µM

Cc1ccc(C(=O)N2C[C@@H](C)OC[C@H]2Cc2cccc(-c3ncccn3)c2)c(-n2nccn2)c1C [Example 112, (3,4-Dimethyl-2-[1,2,3]triazol-2-yl-phenyl)-[(2R,5R)-2-methyl-5-(3-pyrimidin-2-yl-benzyl)-morpholin-4-yl]-methanone]
IC50 [1]: 0.839 µM | IC50 [3]: > 50 µM

Cc1ccc(-n2nccn2)c(C(=O)N2C[C@@H](C)OC[C@H]2Cc2cc(-c3ncccn3)ccc2F)c1 [Example 147, [(2R,5R)-5-(2-Fluoro-5-pyrimidin-2-yl-benzyl)-2-methyl-morpholin-4-yl]-(5-methyl-2-[1,2,3]triazol-2-yl-phenyl)-methanone]
IC50 [1]: 0.171 µM | IC50 [3]: 28 µM

C[C@@H]1CN(C(=O)c2ccc(Cl)cc2-n2nccn2)[C@H](Cc2cc(-c3ncccn3)ccc2F)CO1 [Example 153, (4-Chloro-2-[1,2,3]triazol-2-yl-phenyl)-[(2R,5R)-5-(2-fluoro-5-pyrimidin-2-yl-benzyl)-2-methyl-morpholin-4-yl]-methanone]
IC50 [1]: 0.085 µM | IC50 [3]: 18 µM

Cc1ccc(-n2nccn2)c(C(=O)N2CCOC[C@H]2Cc2cc(-c3ncccn3)ccc2F)c1 [Example 155, [(R)-3-(2-Fluoro-5-pyrimidin-2-yl-benzyl)-morpholin-4-yl]-(5-methyl-2-[1,2,3]triazol-2-yl-phenyl)-methanone]
IC50 [1]: 0.371 µM | IC50 [3]: 30 µM

Cc1ccc(C(=O)N2CCOC[C@H]2Cc2cc(-c3ncccn3)ccc2F)c(-n2nccn2)c1C [Example 158, (3,4-Dimethyl-2-[1,2,3]triazol-2-yl-phenyl)-[(R)-3-(2-fluoro-5-pyrimidin-2-yl-benzyl)-morpholin-4-yl]-methanone]
IC50 [1]: 2.26 µM | IC50 [3]: 40 µM

O=C(c1ccc(Cl)cc1-n1nccn1)N1CCOC[C@H]1Cc1cc(-c2ncccn2)ccc1F [Example 160, (4-Chloro-2-[1,2,3]triazol-2-yl-phenyl)-[(R)-3-(2-fluoro-5-pyrimidin-2-yl-benzyl)-morpholin-4-yl]-methanone]
IC50 [1]: 0.268 µM | IC50 [3]: 17 µM

O=C(c1ccccc1-n1nccn1)N1CCC[C@H]1Cc1cccc(-n2nccn2)c1 [Ref. 1]
IC50 [2]: 0.004 µM | IC50 [3]: 5.5 µM
